What all share (test): NCI-60 cell line screen, 48 h
In experiment [1] the test system is CCRF-CEM.
Experiment [2] deals with COLO 205.
The subject of experiment [3] is HCT-15.
Experiment [4] has as its system HT-29.
Experiment [5] deals with KM12.
For experiment [6], the system named is MOLT-4.
Experiment [7] concerns Malme-3M.
In experiment [8] the test system is OVCAR-4.
The test system of experiment [9] is RPMI-8226.
The subject of experiment [10] is SF-295.
In experiment [11] the test system is SF-539.
Experiment [12] deals with SK-OV-3.
The subject of experiment [13] is SN12C.
The test system of experiment [14] is SNB-78.
Experiment [15] relates to UACC-62.
For experiment [16], the system named is HCC 2998.
Experiment [17] deals with DU-145.
Experiment [18] deals with MCF7.
Experiment [19] concerns PC-3.
Experiment [20] concerns T47D.

The values below come from ChEMBL document CHEMBL1201862, “PubChem BioAssay data set” (2004).

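Growth conditions: 96-well plates. Treatment: test compound, 48 hours, 5 concentrations. Analysis: linear interpolation between bracketing concentrations; unreached endpoints set to highest concentration. Abbreviation: GI50, concentration required for 50% inhibition of growth.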 Active and inactive are the calls of the source. Cut-off read from the data, not from the text of the source: active = GI50 up to about 1.1 µM and inactive = higher.

For the compound `CC(=O)Nc1ccc(-c2nnc(SCC(=O)Nc3cccc(C)c3)o2)cc1`, the GI50 in experiment [1] was 6.62 µM (inactive); in experiment [2], 14.8 µM (inactive); in [3], 8.97 µM; in experiment [4], 12.2 µM (inactive); in [5], 10.8 µM (inactive); in experiment [6] it was 4.84 µM (inactive). Moreover, the GI50 in experiment [7] was 14.1 µM (inactive); in experiment [8], 16 µM (inactive); in experiment [9] it was 13.8 µM (inactive); in experiment [10], 10.8 µM (inactive); in experiment [11], 14.5 µM (inactive); in experiment [12], 25.8 µM (inactive). Also, the GI50 in experiment [13] is 15.2 µM (inactive); in experiment [14] it was 13.7 µM (inactive); in [15], 8.26 µM (inactive).
As for `COc1ccc2nc3cccc(C(=O)NCCN(C)C)c3nc2c1`, the GI50 was 1.75 µM (inactive) in experiment [2]; 1.85 µM (inactive) in experiment [16]; 1.43 µM in [3]; 0.632 µM (active) in experiment [4]; 1.3 µM (inactive) in experiment [5]; 0.187 µM (active) in [6]. The GI50 in experiment [7] is 0.571 µM (active); in experiment [8], 1.63 µM (inactive); in [9] it was 0.824 µM (active); in experiment [10], 2.08 µM (inactive); in experiment [11], 2.1 µM (inactive); in experiment [12], 4.09 µM (inactive). The GI50 in experiment [13] was 1.39 µM (inactive); in [14], 2.88 µM (inactive); in experiment [15], 2.24 µM (inactive).
`CCOCN1COCN/C1=N/C#N`: the GI50 is 28.3 µM (inactive) in experiment [2]; > 100 µM (inactive) in experiment [16]; 58.5 µM in [3]; > 100 µM (inactive) in experiment [4]; > 100 µM (inactive) in experiment [5]; > 100 µM (inactive) in experiment [6]. Moreover, the GI50 in [7], in experiment [8], in experiment [10], in experiment [11], in experiment [12] and in experiment [13] was > 100 µM (inactive) each time. For the same compound, the GI50 in experiment [14] and in [15] was > 100 µM (inactive) throughout.
Regarding `Cc1ccc(NC(=O)c2cc3cc(/N=N/c4ccc(Br)cc4)ccc3oc2=O)cc1`, the GI50 in experiment [2] was > 100 µM (inactive); in [16] it was > 100 µM (inactive); in [3], 46 µM; in experiment [4], > 100 µM (inactive); in experiment [5], 47.6 µM (inactive); in [6] it was 83 µM (inactive). For the same compound, the GI50 in experiment [7], in experiment [8], in experiment [9], in [10], in experiment [12] and in experiment [13] was > 100 µM (inactive) throughout. In addition, the GI50 in [14] was > 100 µM (inactive).
`Cc1ccc(OCC(=O)N2N=C(c3ccccc3)CC2(O)c2ccccc2)cc1` (stereo not drawn): the GI50 is 28.2 µM (inactive) in experiment [2]; > 100 µM (inactive) in experiment [16]; more than 100 µM in experiment [3]; > 10 µM (inactive) in [4]; 99.5 µM (inactive) in experiment [5]; 7.89 µM (inactive) in experiment [6]. Also, the GI50 in experiment [7] was > 100 µM (inactive); in [8], 18.5 µM (inactive); in experiment [9], 16.6 µM (inactive); in experiment [10] it was 76 µM (inactive); in experiment [11] it was 43 µM (inactive); in [12], > 100 µM (inactive). In addition, the GI50 is 17.3 µM (inactive) in experiment [13], 22.1 µM (inactive) in experiment [14] and 43.4 µM (inactive) in experiment [15].
With `O=C(NO)c1cccc(OCc2ccc(Br)cc2)c1`, the GI50 was 1.91 µM (inactive) in experiment [1]; 8.11 µM (inactive) in experiment [2]; 3130 nM (inactive) in experiment [17]; 7.52 µM (inactive) in experiment [16]; 0.991 µM in experiment [3]; 6.98 µM (inactive) in [4]. In addition, the GI50 in experiment [5] was 5.4 µM (inactive); in experiment [18], 2450 nM (inactive); in [6], 2.03 µM (inactive); in experiment [7], 2.37 µM (inactive); in [8], 5.24 µM (inactive); in [19], 5890 nM (inactive). Besides, the GI50 is 2.74 µM (inactive) in experiment [9]; 4.79 µM (inactive) in experiment [10]; 4.72 µM (inactive) in experiment [11]; 5.21 µM (inactive) in experiment [12]; 2.79 µM (inactive) in [13]; 3060 nM (inactive) in [20]. Moreover, the GI50 in experiment [15] was 4.15 µM (inactive).
In the case of `COc1ccc2[nH]c3c(C)c4ccnc(NCCCN(C)CCCNc5ccc6ncn7c8ccccc8c(=O)c5c67)c4c(C)c3c2c1`, the GI50 is 0.0394 µM (active) in [1]; 0.272 µM (active) in experiment [2]; 796 nM (active) in [17]; 0.0578 µM (active) in experiment [16]; 0.21 µM in experiment [3]; 0.0141 µM (active) in experiment [4]. Besides, the GI50 is 0.478 µM (active) in experiment [5]; 142 nM (active) in experiment [18]; 0.0043 µM (active) in experiment [6]; 1.07 µM (active) in [7]; 0.106 µM (active) in [8]; 752 nM (active) in experiment [19]. The GI50 in experiment [9] is 0.13 µM (active); in experiment [10] it was 0.34 µM (active); in experiment [11] it was 0.132 µM (active); in experiment [12], 2.29 µM (inactive); in experiment [13], 0.0621 µM (active); in [20] it was 979 nM (active). In experiment [15], the GI50 is 1.71 µM (inactive).
Consider `Cc1cccc(/C=N/NC(=S)N(C)CCc2ccccn2)n1`, for which the GI50 in [1] was 0.0288 µM (active); in experiment [2], 0.183 µM (active); in experiment [17], 236 nM (active); in experiment [16] it was 0.453 µM (active); in experiment [3], 0.196 µM; in experiment [4], 0.265 µM (active). For the same compound, the GI50 in experiment [5] was 0.687 µM (active); in experiment [18], 420 nM (active); in experiment [6] it was 0.0647 µM (active); in experiment [7] it was 0.361 µM (active); in experiment [8], 22.9 µM (inactive); in experiment [19], 288 nM (active). The GI50 in [9] was 0.104 µM (active); in experiment [10] it was 0.383 µM (active); in [11] it was 0.407 µM (active); in [12] it was 0.541 µM (active); in experiment [13] it was 0.378 µM (active); in experiment [20], 123 nM (active). Besides, the GI50 in [15] is 0.287 µM (active).
As for `O=C(NCCOC(=O)CCCCCCCCC(=O)OCCNC(=O)NC(=O)c1cn(Cc2ccccc2)c(=O)[nH]c1=O)NC(=O)c1cn(Cc2ccccc2)c(=O)[nH]c1=O`, the GI50 is > 100 µM (inactive) in experiment [2]; > 100 µM (inactive) in experiment [16]; more than 100 µM in experiment [3]; > 100 µM (inactive) in [4]; > 100 µM (inactive) in experiment [5]; > 100 µM (inactive) in experiment [6]. In addition, the GI50 in experiment [8], in experiment [9], in [10], in [11], in [12] and in [13] was > 100 µM (inactive) throughout. The GI50 in [14] and in experiment [15] was > 100 µM (inactive) in each case.
